Laboratory results: ChEMBL document CHEMBL1201862, “PubChem BioAssay data set” (2004)
Active and inactive are the calls of the source.

Experiments:
[1] = biological target: Disintegrin and metalloproteinase domain-containing protein 17 (Homo sapiens, UniProt P78536); experiment: exosite inhibitors of ADAM17, dose response, biochemical (AID 743260)
[2] = inhibition of ADAM10 peptide cleavage – biochemical, FRET peptide substrate, recombinant human ADAM10, selectivity assay for ADAM17 exosite inhibitor project, dose response (AID 743259);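 further: ADAM10 enzyme cleaving a FRET peptide substrate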
Cytochrome P450 3A4 = Cytochrome P450 3A4 (Homo sapiens, UniProt P08684);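 further: CYP3A4 tested as one member of a cytochrome P450 panel screen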
Sequence of Cytochrome P450 3A4 (P08684 whole entry): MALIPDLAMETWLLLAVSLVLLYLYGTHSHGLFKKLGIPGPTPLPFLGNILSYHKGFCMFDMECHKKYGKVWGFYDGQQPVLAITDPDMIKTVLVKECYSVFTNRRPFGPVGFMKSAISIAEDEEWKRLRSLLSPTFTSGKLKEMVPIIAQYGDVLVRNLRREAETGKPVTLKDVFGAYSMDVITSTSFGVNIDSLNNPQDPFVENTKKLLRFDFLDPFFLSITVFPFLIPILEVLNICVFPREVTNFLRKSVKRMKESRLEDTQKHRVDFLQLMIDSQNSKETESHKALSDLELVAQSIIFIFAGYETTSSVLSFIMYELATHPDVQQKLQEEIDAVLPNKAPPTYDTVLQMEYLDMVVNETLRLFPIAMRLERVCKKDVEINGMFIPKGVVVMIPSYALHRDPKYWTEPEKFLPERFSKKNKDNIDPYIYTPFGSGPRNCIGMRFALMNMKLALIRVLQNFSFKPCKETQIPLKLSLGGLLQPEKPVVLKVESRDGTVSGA

[3] = biological target: Voltage-dependent T-type calcium channel subunit alpha-1H (Homo sapiens, UniProt O95180); type: functional;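 further: channel activity triggered by adding a high calcium stimulation buffer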
Kallikrein-7 = Kallikrein-7 (Homo sapiens, UniProt P49862); experiment: Fluorescence Intensity-based biochemical primary high throughput dose response assay to identify activators of kallikrein-7 (K7) zymogen.
Sequence of Kallikrein-7 (P49862 whole entry): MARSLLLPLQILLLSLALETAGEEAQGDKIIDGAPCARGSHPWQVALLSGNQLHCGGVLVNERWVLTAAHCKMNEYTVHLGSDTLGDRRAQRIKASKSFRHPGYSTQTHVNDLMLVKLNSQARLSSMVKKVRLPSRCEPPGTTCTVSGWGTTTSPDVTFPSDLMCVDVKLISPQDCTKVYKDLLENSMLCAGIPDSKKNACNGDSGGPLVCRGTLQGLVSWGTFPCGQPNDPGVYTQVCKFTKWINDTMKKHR

Protein skinhead-1 = biological target: T1, Protein skinhead-1 (Caenorhabditis elegans, UniProt P34707); type: functional
T1 sequence (P34707 whole entry): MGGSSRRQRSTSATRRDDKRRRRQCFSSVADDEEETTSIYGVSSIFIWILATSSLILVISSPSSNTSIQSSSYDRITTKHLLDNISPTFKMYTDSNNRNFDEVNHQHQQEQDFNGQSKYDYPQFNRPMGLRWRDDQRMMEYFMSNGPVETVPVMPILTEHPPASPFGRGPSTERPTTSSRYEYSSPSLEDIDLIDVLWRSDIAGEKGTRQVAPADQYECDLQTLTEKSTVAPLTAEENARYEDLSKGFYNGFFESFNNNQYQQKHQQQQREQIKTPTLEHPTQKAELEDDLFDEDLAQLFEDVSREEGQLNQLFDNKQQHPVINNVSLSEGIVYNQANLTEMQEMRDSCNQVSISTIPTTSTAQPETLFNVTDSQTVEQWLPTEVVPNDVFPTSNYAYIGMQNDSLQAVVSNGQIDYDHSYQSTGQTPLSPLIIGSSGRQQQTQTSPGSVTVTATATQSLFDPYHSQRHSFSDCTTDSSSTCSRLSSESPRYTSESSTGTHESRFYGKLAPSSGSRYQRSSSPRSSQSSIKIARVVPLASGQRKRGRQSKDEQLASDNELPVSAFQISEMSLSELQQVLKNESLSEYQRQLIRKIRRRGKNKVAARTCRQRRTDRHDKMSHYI

Large T antigen = Large T antigen (Simian virus 40, UniProt P03070); type: functional, Betapolyomavirus macacae;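 further: Confirmatory-stage PubChem screen for compounds that inhibit SV40 T antigen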
Sequence of Large T antigen (P03070 whole entry): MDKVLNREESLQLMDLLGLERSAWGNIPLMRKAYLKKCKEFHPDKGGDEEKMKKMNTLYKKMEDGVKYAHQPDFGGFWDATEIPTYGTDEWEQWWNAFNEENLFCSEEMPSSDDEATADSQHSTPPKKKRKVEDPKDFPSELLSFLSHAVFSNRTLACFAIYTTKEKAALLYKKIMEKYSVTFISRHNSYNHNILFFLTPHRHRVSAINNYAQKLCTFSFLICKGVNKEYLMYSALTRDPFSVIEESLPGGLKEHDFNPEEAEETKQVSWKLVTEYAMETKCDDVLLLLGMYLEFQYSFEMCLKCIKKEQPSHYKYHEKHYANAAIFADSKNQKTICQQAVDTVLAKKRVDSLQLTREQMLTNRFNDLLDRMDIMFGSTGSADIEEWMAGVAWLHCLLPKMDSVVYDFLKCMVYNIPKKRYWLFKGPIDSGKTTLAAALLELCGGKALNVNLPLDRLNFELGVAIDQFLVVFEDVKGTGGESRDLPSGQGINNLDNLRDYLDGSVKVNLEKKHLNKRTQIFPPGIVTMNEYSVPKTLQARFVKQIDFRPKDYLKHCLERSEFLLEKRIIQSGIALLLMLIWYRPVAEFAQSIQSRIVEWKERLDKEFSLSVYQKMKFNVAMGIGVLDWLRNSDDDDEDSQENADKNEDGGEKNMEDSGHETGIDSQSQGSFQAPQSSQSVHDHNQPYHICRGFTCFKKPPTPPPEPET

Protein Tat = Protein Tat (Human immunodeficiency virus type 1 group M subtype B (isolate HXB2)(HIV-1), UniProt P04608); type: functional;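 further: tat binding to TAR RNA read out by fluorescence polarization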
Sequence of Protein Tat (P04608 whole entry): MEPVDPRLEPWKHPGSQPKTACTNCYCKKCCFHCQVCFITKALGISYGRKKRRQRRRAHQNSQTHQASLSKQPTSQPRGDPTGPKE

[4] = Counterscreen for activators of the function of SWI/SNF related, matrix associated, actin dependent regulator of chromatin, subfamily a, member 2 (SMARCA2, BRM): Luminescence-based cell-based high throughput dose response assay to identify non-selective compounds using the VP16 reporter assay.; type: functional
[5] = biological target: SWI/SNF-related matrix-associated actin-dependent regulator of chromatin subfamily A member 2 (Homo sapiens, UniProt P51531); experiment: Luminescence-based cell-based high throughput dose response assay to identify activators of the function of SWI/SNF related, matrix associated, actin dependent regulator of chromatin, subfamily a, member 2 (SMARCA2, BRM).; type: functional
Sequence of SWI/SNF-related matrix-associated actin-dependent regulator of chromatin subfamily A member 2 (P51531 whole entry): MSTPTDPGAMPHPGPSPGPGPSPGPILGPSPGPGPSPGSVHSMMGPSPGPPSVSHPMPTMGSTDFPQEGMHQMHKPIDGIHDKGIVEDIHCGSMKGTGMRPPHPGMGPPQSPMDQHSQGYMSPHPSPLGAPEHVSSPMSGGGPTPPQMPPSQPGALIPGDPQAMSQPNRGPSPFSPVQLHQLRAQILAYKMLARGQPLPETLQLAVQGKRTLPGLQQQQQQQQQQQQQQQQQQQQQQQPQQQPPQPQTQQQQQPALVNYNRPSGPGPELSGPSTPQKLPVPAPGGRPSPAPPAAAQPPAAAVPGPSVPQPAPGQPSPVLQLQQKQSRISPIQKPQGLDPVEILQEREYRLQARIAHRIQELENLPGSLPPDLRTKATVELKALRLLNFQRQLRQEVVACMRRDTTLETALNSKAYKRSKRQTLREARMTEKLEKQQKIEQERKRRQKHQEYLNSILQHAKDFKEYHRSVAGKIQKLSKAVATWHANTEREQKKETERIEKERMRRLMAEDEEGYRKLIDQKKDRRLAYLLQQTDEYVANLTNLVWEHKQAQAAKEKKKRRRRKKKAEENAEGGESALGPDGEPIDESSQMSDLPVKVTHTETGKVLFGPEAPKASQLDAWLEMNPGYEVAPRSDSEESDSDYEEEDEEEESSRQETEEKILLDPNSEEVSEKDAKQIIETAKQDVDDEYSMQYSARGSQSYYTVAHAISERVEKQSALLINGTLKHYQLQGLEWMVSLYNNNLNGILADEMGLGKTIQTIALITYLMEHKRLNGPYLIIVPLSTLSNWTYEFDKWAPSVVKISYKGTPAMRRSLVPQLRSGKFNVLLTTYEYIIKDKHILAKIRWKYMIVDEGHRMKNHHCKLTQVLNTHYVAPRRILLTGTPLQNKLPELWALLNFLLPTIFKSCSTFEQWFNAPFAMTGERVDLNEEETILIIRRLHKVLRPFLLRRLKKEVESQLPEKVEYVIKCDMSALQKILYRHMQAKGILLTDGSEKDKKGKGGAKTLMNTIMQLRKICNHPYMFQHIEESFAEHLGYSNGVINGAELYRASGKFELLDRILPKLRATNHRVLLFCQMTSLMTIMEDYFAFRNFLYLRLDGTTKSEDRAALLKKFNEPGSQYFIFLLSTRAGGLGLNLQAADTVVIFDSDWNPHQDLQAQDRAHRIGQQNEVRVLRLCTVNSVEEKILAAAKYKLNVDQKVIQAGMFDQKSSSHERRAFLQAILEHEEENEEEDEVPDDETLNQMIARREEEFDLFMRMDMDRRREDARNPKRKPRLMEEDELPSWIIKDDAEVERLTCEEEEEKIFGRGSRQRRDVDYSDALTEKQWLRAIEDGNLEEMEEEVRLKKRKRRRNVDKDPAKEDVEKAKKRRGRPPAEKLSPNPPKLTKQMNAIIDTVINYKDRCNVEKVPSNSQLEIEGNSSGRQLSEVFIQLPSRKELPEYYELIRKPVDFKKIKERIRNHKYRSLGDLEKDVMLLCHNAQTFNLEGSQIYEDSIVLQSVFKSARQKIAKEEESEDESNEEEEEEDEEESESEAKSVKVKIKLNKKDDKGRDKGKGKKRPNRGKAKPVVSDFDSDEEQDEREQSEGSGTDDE

[6] = viability inhibitors of stage V gametocytes – luminescence, dose response (AID 1117278); type: functional, cell-based;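 further: gametocytes exposed to compound for 24 hours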
[7] = viability loss in human Jurkat cells – cell-based, luminescence, cytotoxicity control for P. falciparum gametocyte viability project, dose response (AID 1117277); type: functional;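 further: potency reflects loss of cellular ATP meaning fewer viable cells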
[8] = biological target: T2, Calpain-2 catalytic subunit (Sus scrofa, UniProt P43367); experiment: m-calpain protease blockers, concentration series – biochemical, fluorogenic peptide substrate, dose response (AID 1420); type: functional
T2 sequence (P43367 whole entry): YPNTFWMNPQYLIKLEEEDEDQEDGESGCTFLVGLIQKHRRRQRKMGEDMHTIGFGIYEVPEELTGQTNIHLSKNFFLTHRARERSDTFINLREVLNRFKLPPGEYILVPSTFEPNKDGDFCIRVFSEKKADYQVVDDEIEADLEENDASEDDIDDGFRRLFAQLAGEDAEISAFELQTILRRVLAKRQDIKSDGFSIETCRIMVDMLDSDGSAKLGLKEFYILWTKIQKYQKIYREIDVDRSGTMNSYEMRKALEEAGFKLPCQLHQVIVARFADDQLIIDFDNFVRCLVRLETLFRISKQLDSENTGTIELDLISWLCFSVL

Mu-type opioid receptor = Mu-type opioid receptor (Homo sapiens, UniProt P35372); type: functional, cell-based;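 further: U2OS cells with beta-arrestin recruitment to OPRM1 by beta-gal complementation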
Sequence of Mu-type opioid receptor (P35372 whole entry): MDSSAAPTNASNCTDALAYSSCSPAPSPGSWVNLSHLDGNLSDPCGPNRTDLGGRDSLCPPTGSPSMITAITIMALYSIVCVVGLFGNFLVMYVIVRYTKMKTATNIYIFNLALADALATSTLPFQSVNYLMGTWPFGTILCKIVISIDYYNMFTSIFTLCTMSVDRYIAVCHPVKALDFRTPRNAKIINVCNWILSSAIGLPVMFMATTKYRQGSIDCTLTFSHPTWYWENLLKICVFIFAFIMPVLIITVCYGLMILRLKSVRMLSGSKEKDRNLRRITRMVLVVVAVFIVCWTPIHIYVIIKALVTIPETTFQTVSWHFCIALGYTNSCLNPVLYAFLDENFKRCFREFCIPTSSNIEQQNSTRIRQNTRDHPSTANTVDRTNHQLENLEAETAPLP

[9] = biological target: 5-hydroxytryptamine receptor 2A (Mus musculus, UniProt P35363); type: functional, cell-based;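 further: CHO-K1 cells with tagged receptor and beta-arrestin; agonist potency measured as compound-induced activation of the receptor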
Sequence of 5-hydroxytryptamine receptor 2A (P35363 whole entry): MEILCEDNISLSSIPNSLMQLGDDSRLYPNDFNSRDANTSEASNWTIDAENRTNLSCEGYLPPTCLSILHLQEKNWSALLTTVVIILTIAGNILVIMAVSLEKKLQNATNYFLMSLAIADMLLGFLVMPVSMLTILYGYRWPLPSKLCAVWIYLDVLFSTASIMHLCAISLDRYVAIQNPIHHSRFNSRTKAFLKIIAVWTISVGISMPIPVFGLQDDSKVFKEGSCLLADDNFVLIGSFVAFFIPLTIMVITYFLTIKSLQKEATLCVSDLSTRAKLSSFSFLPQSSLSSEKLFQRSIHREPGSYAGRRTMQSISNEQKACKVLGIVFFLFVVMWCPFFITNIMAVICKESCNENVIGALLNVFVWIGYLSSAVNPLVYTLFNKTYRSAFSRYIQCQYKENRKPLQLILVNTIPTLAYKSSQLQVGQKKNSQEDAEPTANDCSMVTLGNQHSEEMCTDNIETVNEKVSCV

[10] = HIV-1 Vif–A3G interaction blockers – biochemical, TR-FRET, GST-Vif 1-94, biotin-A3G peptide, dose response retest, primary screen (AID 1117319); type: functional;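 further: TR-FRET signal of purified GST-Vif binding a biotinylated A3G peptide; inhibitors lower the FRET signal by blocking Vif and A3G binding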
[11] = biological target: NAD-dependent protein deacylase sirtuin-5, mitochondrial (Homo sapiens, UniProt Q9NXA8); experiment: sirtuin-5 deacylation blockers, concentration series – biochemical, fluorescence imaging, cherry-pick, set 5, dose response (AID 720591);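 further: desuccinylation of succinyl peptide AMC substrate read as fluorescence after trypsin release; potency of inhibitors that lower fluorescence and may act on trypsin instead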

Sequence of Disintegrin and metalloproteinase domain-containing protein 17 (P78536 whole entry, the tested form may be a part): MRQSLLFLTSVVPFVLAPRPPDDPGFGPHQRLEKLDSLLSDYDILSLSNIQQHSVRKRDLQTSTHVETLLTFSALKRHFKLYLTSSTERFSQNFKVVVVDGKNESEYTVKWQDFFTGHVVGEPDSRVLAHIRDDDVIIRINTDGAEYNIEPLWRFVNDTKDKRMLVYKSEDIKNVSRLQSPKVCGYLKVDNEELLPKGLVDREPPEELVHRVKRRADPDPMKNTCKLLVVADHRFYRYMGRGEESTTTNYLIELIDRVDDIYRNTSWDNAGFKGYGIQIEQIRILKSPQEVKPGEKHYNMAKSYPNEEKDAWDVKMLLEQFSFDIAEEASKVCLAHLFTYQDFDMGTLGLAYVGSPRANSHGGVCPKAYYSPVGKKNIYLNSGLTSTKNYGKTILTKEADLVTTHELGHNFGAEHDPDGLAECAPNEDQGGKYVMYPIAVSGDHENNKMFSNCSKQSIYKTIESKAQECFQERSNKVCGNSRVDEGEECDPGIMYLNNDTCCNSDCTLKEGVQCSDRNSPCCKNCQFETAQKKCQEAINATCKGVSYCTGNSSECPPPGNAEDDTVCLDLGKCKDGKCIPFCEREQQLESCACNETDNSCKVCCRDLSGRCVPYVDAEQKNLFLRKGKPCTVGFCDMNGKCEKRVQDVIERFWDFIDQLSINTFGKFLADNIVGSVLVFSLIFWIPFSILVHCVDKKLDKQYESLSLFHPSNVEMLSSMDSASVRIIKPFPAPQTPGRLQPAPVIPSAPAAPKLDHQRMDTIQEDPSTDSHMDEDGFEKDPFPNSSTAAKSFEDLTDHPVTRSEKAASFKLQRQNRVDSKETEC

**Q.** With CC(C)(C)c1ccc(-c2nc(NCc3cccnc3)c3ccccc3n2)cc1 as the compound, how does the IC50 [1] read?
**A.** > 69.5 µM (inactive)

**Q.** What about the IC50 [2] of the same compound?
**A.** > 7.72 µM (active)

**Q.** Which IC50 [1] does the source give for O=C(CC(c1ccccc1)c1ccccc1)Nc1ccc2c(c1)OCCO2 here?
**A.** > 69.5 µM (inactive)

**Q.** And the AC50 (Cytochrome P450 3A4)?
**A.** 20 µM (inconclusive)

**Q.** And the IC50 [2]?
**A.** > 69.5 µM (inactive)

**Q.** And the EC50 [3]?
**A.** 33.6 µM (active)

**Q.** With O=C(c1cc(-c2cccs2)nc2ccccc12)N1CCN(CCO)CC1 as the compound, how does the EC50 (Kallikrein-7) read?
**A.** > 69.5 µM (inactive)

**Q.** What does the source list for O=c1c(-c2ccc(Br)cc2)coc2c(CN3CCOCC3)c(O)ccc12?
**A.** IC50 (Protein skinhead-1): > 100 µM (inactive); EC50 (Kallikrein-7): 66.1 µM (inactive)

**Q.** Which IC50 (Large T antigen) does the source give for CC1OC(OCC2OC(Oc3c(-c4ccc(O)cc4)oc4cc(O)cc(O)c4c3=O)C(O)C(O)C2O)C(O)C(O)C1O (stereo unspecified) here?
**A.** 17.3 µM (active)

**Q.** And the IC50 (Protein Tat)?
**A.** > 100 µM (active)

**Q.** Which results are given for O=c1c2ccccc2sc2c(CO)ccc(NCCN3CCCCC3)c12?
**A.** EC50 [4]: > 91.1 µM (inactive); AC50 (Cytochrome P450 3A4): 6.31 µM (inconclusive); EC50 [5]: > 91.1 µM (inactive)

**Q.** For CC(C(=O)Nc1ccccc1Oc1ccccc1)c1ccccc1 (stereo unspecified), which IC50 [6] is on record?
**A.** > 109 µM (inactive)

**Q.** And the IC50 [7]?
**A.** > 83.2 µM (inactive)

**Q.** And the IC50 [8]?
**A.** 19.8 µM (not active)

**Q.** With CC(C)=CC(=O)N1CC[C@@H](N2CCN(c3ccccc3F)CC2)[C@H](O)C1 as the compound, how does the EC50 (Mu-type opioid receptor) read?
**A.** 92.4 µM (inactive)

**Q.** What about the EC50 [9] of the same compound?
**A.** 43.5 µM (inactive)

**Q.** For O=C(CNC(=O)c1cccs1)OCC(=O)c1ccc2ccccc2c1, which IC50 [10] is on record?
**A.** > 100 µM (active)

**Q.** With COCC(C)n1c(C)cc(C(=O)COC(=O)CCc2nc(O)c3ccccc3n2)c1C (stereo unspecified) as the compound, how does the AC50 [11] read?
**A.** > 30 µM (inactive)
